Patent publication US8680094B2, “1, 4-benzoxazine compounds and derivatives thereof as therapeutic drugs for the treatment of neurodegenerative conditions” (Board of Regents, The University of Texas System, priority 2008, dated 2014)
Where “and” joins values, the source holds several entries; their conditions need not be identical. Equal entries are not always repeated. Entries after “also recorded” stand apart in the source; their conditions may differ.

Experiments:
Type in all cases: cell-based, rat
phospho-Akt (Ser473) = test: Western blot of signaling proteins in LK-treated cerebellar granule neurons: phospho-Akt (Ser473); conditions: LK medium with compound
Procedure: (§1) Cultures of cerebellar granule neurons were switched to HK medium, LK medium, or LK medium containing of HSB-13, HSB-22, or ASK-2a for 3 h. Total cell lysates were prepared and analyzed by Western blotting using antibodies against phospho-Akt (Ser473), phospho-MEK, phospho-ERK, and phospho-GSK3β.
(§2) The culture medium was removed and the cells were washed twice with ice-cold phosphate-buffered saline (PBS) and lysed in lysis buffer [1% Triton, 20 mM Tris-HCl (pH 7.5), 150 mM NaCl, 1 mM Na2EDTA, 1 mM EGTA, 2.5 mM sodium pyrophosphate, 1 mM beta-glycerophosphate, 1 mM Na3VO4, 1 μg/mL leupeptin and 1 protease inhibitor mixture]. Protein concentrations were measured and normalized using Bradford protein assay reagent (Bio-Rad, Hercules, Calif., USA). Following normalization, 40 μg of protein was subjected to Western blotting. Immunoreactivity was examined by enhanced chemiluminescence (Amersham Bioscience, Piscataway, N.J., USA).
(§3) Activation of MEK, ERK and Akt requires their phosphorylation, which can be detected using phospho-specific antibodies. As previously reported by the inventors and others (Chin et al., 2004; Johnson et al., 2005; Majdzadeh et al., 2008), MEK and ERK phosphorylation decreases following LK treatment of cerebellar granule neurons. This decrease is not prevented by HSB-13, HSB-22, or ASK-2a (FIG. 4). […] This is also not affected by treatment with ASK-2a or HSB-22 (FIG. 4).

[1] = tested on: cerebellar granule neurons; test: LK-induced death of cultured cerebellar granule neurons, viability by DAPI staining; conditions: for protection against LK-induced neuronal death (FIG. 1): 25 μM, phase contrast microscopy, DAPI-staining, TUNEL-staining; for neuroprotection against LK-induced neuronal death, in words: overall over 1, 5 and 25 μM
Procedure: Culturing and treatments of cerebellar granule neurons: Granule neuron cultures were obtained from dissociated cerebella of 6-7 day old Wistar rats as described previously (D'Mello et al., 1993). Cells were plated in Basal Eagle's Medium (BME) supplemented with 10% fetal calf serum (FCS), 25 mM KCl, 2 mM glutamine (Invitrogen), and 100 μg/ml gentamycin in poly-L-lysine coated 24-well dishes at a density 1×10^6 cells/well. Cytosine arabinofuranoside (10 μM) was added to the culture medium 18-22 h after plating to prevent replication of nonneuronal cells. Previous immunocytochemical analyses by our lab and other investigators have shown that these cultures have high purity containing over 95% granule neurons (Thangnipon et al., 2003; Kingsbury et al., 2005).
The neuronal cultures were maintained for 7-8 days prior to treatment. For treatment, the cells were rinsed once and then maintained in low K+ medium (serum-free BME medium; referred to as LK), or in the case of control cultures, in high K+ medium (serum-free BME medium supplemented with 20 mM KCl; referred to as HK). For treatments, the chemical compounds (dissolved in dimethylsulfoxide) were added directly to LK medium at the time of the switch from HK at concentrations of 1, 5, or 25 μM. Viability was assessed 24 hours by 4′,6′-diamidino-2-phenylindole hydrochloride (DAPI) staining (see below). Each compound was tested in duplicate (at each of the concentrations) and the experiment repeated at least 3 times.
The viability status of neuronal cultures treated with HK, LK, or LK medium supplemented with various compounds was evaluated by phase contrast microscopy and quantified by staining cell nuclei with DAPI as previously described (Yalcin et al., 2003; Morrison et al., 2006; Majzadeh et al., 2007)). Briefly, the cells were fixed in 4% paraformaldehyde for 20 min at 4° C. After washing in phosphate buffered saline, diamidino-2-phenylindole hydrochloride (DAPI; 1 μg/ml in phosphate buffered saline) was added for 15 min at room-temperature and viewed under ultraviolet light (260 nm). Cells with condensed or fragmented nuclei were scored as dead. Viability has been expressed as percent of control cultures, which were switched to HK medium). Statistical analysis was performed using an unpaired, two-tailed Student's T test, compared to mean neuronal survival of control cultures receiving LK treatment.
When cultured cerebellar granule neurons are switched from HK to LK medium about 50% of the cells underwent apoptosis within 24 h (D'Mello et al., 1993). The inventors utilized this widely used and recognized model to test a total of 20 different 1,4-benzoxazine derivatives for their ability to protect against LK-induced neuronal death. Each compound was tested at 3 different doses—1 μM, 5 μM and 25 μM and viability quantified by DAPI-staining. The highest does was included to test for possible toxicity effects of the compounds. Key results were confirmed using TUNEL staining, another reliable assay of apoptosis (FIG. 1). As shown in Table 1 and FIG. 1, the present invention identifies several compounds with significant neuroprotective effect. Two of the most protective compounds are HSB-13 and HSB-22, both with Ar=3′,5′-dibromo-4′-hydroxyphenyl (FIG. 1). […] Protection with this compound is lower than that observed with HSB-13 and HSB-22 at the two lower doses. […] To examine whether a higher level of protection could be observed at doses lower than 1 μM, the analyses of these compounds was extended to doses of 0.5, 0.25, and 0.1 μM.
When cultured cerebellar granule neurons are switched to LK medium, about 50% of the cells undergo apoptosis within 24 h. In this study, a total of 20 different 1,4-benzoxazine derivatives of the structure shown in FIG. 1 were tested for their ability to protect against LK-induced death of cerebellar granule neurons. Each compound was tested at 3 different doses —1 μM, 5 μM and 25 μM. […]

phospho-GSK3β = test: Western blot of signaling proteins in LK-treated cerebellar granule neurons: phospho-GSK3β; conditions: LK medium with compound, 3 h
Procedure: as §1, §2
Since the Raf-MEK-ERK and the PI-3 Kinase-Akt pathways are not required for neuroprotection by HSB-13, the involvement of other signaling molecules that are known to promote neuronal survival was determined. GSK3β is a proapoptotic molecule that is activated during apoptosis in many neuronal and non-neuronal systems. Under survival promoting conditions GSK3β is kept inactivated by phosphorylation at an inhibitory site, a modification that can be induced by Akt as well as by other kinases.

phospho-MEK = test: Western blot of signaling proteins in LK-treated cerebellar granule neurons: phospho-MEK; conditions: LK medium with compound, 3 h
Procedure: as §1, §2, §3

phospho-ERK = test: Western blot of signaling proteins in LK-treated cerebellar granule neurons: phospho-ERK; conditions: LK medium with compound, 3 h
Procedure: as §1, §2, §3

[2] = Table 1, 5 μM in LK medium, 24 h, % of survival in control cultures in HK medium, LK alone 48%
[3] = Table 1, 25 μM in LK medium, 24 h, % of survival in control cultures in HK medium, LK alone 48%
[4] = Table 4, 1 μM in LK medium, % of survival in HK control cultures, LK alone 48.16±8.44%
[5] = Table 4, 5 μM in LK medium, % of survival in HK control cultures, LK alone 48.16±8.44%
[6] = Table 4, 25 μM in LK medium, % of survival in HK control cultures, LK alone 48.16±8.44%

O=C1Nc2ccccc2OC1=Cc1cc(Br)c(O)c(Br)c1 [ASK-2a]
phosphorylation of Akt at Ser473 in LK (phospho-Akt (Ser473)): not affected | protection against LK-induced neuronal death (FIG. 1) ([1]; 24 h): protective | % Survival ([1]; Table 1, 1 μM in LK medium, 24 h, % of survival in control cultures in HK medium, LK alone 48%): 74.01 ± 6.93% | % Survival [1, 2]: 80.84 ± 9.31 % | % Survival [1, 3]: 95.12 ± 3.28 % | neuroprotection against LK-induced neuronal death, in words [1]: much higher neuroprotection than ASK2; also recorded: high level of neuroprotection; also recorded: effective in all the three concentrations | dephosphorylation of GSK3β in LK (phospho-GSK3β): inhibit dephosphorylation | LK-induced decrease of MEK phosphorylation (phospho-MEK): not prevented | LK-induced decrease of ERK phosphorylation (phospho-ERK): not prevented

Nc1ccc2c(c1)NC(=O)/C(=C/c1cc(Br)c(O)c(Br)c1)O2 [HSB-13, (Z)-6-amino-2-(3,′5′-dibromo-4′-hydrozybenzylidene)-2H-benzo[b][1,4]oxazin-3(4H)-one]
phosphorylation of Akt at Ser473 in LK (phospho-Akt (Ser473)): inhibits Akt (Ser473) phosphorylation even more than that seen in LK | protection against LK-induced neuronal death (FIG. 1) ([1]; 24 h): protective | % Survival [1, 2]: 100.2 ± 2.25 % | % Survival [1, 3]: 95.1 ± 5.06 % | % Survival [1, 4]: 83.1 ± 4.53 % | % Survival [1, 5]: 100.8% and 100.8 ± 0.07 % | % Survival [1, 6]: 99.5% and 99.5 ± 1.56 % | neuroprotection against LK-induced neuronal death, in words [1]: highest neuroprotection; also recorded: effective in all the three concentrations | dephosphorylation of GSK3β in LK (phospho-GSK3β): not inhibited | LK-induced decrease of MEK phosphorylation (phospho-MEK): not prevented | LK-induced decrease of ERK phosphorylation (phospho-ERK): not prevented

O=C1Nc2cc(Cl)ccc2O/C1=C\c1cc(Br)c(O)c(Br)c1 [HSB-22]
phosphorylation of Akt at Ser473 in LK (phospho-Akt (Ser473)): not affected | protection against LK-induced neuronal death (FIG. 1) ([1]; 24 h): protective | % Survival [1, 2]: 87.54 ± 8.83 % | % Survival [1, 3]: 91.24 ± 9.03 % | % Survival [1, 4]: 92% and 91.9 ± 1.98 % | % Survival [1, 5]: 97% and 96.7 ± 2.96 % | % Survival [1, 6]: 90.6% and 90.6 ± 0.84 % | neuroprotection against LK-induced neuronal death, in words [1]: effective in all the three concentrations | dephosphorylation of GSK3β in LK (phospho-GSK3β): inhibit dephosphorylation | LK-induced decrease of MEK phosphorylation (phospho-MEK): not prevented | LK-induced decrease of ERK phosphorylation (phospho-ERK): not prevented
